In the assay the target is mPGES-1 in A549 cells (Homo sapiens (Human), UniProt O14684). Description: A549 cell-based assay (PGE2 formation, 50% human serum). To be noted: IL-1β 5 ng/ml, 10 nM arachidonic acid, 20-24 h, read-out: mPGES-1 inhibitory effect IC50 in the cell assay. As to the method: Although the enzymatic assay is a high throughput assay the disadvantage is that it uses a recombinant protein which is not in its natural environment. Accordingly a cellular assay was established in which a cell line of human origin (A549) expressing the mPGES-1 protein was used. In addition in order to mimic the situation in humans in which compounds can be bound to plasma proteins 50% human serum is added in the assay.
mPGES-1 in A549 cells, sequence (O14684 whole entry): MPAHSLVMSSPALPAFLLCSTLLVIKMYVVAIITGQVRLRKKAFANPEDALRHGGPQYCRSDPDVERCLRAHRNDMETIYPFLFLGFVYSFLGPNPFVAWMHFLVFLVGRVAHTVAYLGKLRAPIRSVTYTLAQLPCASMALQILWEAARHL
A549 cells (ATCC: CCL-185) are grown to about 90% confluence in F-12K Nutrient Mixture (Kaighn's Mod. Gibco) containing 10% FBS in a humified incubator at 37° C. and 5% CO2. Cells were detached using Trypsin-EDTA. A549 cells were seeded in a 384-well collagene plate at a density of 7000 cells/well (50 μl) in F-12 medium containing 1% Penicillin-Streptomycin and 50% human serum. The cells were allowed to attach for 3-4 h. After that the cells were incubated for 20-24 h in F-12k medium supplemented with 50% human serum, 1% Penicillin-Streptomycin and containing IL-1β at a final concentration of 5 ng/ml as well as 10 nM arachidonic acid in the presence of a vehicle or a test compound. The total volume is 100 μl.
Concentrations of PGE2 in the cell free medium (10 μl) were measured using a commercially available HTRF kit from Cisbio (as described above). The PGE2 formation in the absence of test compound was taken as 100%.
IC50 values were derived from at 6-8 point titrations using conventional software.
In the case of `Cn1c(Nc2c(Cl)ccc(CNC(=O)C(C)(C)F)c2Cl)nc2cc(C(=O)N[C@H]3CC[C@H](C(F)(F)F)CC3)c(N3CCOCC3)cc21` [Example 146], the IC50 was under 1 nM.

In the case of `Cn1c(Nc2c(Cl)ccc(CNC(=O)c3cc(CO)ccn3)c2Cl)nc2cc(C(=O)NCCC(F)(F)F)c(N3CCC(C(F)(F)F)CC3)cc21` [Example 181], the IC50 was over 100 nM.

As to `Cn1c(Nc2c(Cl)ccc(CNC(=O)c3cccc[n+]3[O-])c2Cl)nc2cc(C(=O)NCCC(F)(F)F)c(N3CCC(C(F)(F)F)CC3)cc21` [Example 174], the IC50 is over 100 nM.

Consider `Cn1c(Nc2c(Cl)ccc(CNC(=O)C3(C(F)(F)F)CC3)c2Cl)nc2cc(C(=O)N[C@H]3CC[C@H](C(F)(F)F)CC3)c(N3CC4CC4C3)cc21` (stereo partly shown) [Example 188], for which the IC50 was 1 nM.

Turning to `CC(C)(F)C(=O)NCc1ccc(Cl)c(Nc2nc3cc(C(=O)NCCC(F)(F)F)c(N4CCC(C(F)(F)F)CC4)cc3n2C(C)(C)CO)c1Cl` [Example 269], the IC50 was 55 nM.

Take `Cn1cncc1C(=O)NCc1ccc(Cl)c(Nc2nc3cc(C(=O)N[C@H]4CC[C@H](C(F)(F)F)CC4)c(N4CC5CC5C4)cc3n2C)c1Cl` (stereo partly shown) [Example 217]: the IC50 is over 100 nM.

As for `Cn1c(Nc2c(Cl)ccc(CNC(=O)C(C)(C)C)c2Cl)nc2cc(C(=O)N[C@H]3CC[C@H](C(F)(F)F)CC3)c(N3CCC(F)CC3)cc21` [Example 125], the half-inhibitory concentration (IC50) is 1.4 nM.

For `CCn1c(C(=O)NCc2ccc(Cl)c(Nc3nc4cc(C(=O)N[C@H]5CC[C@H](C(F)(F)F)CC5)c(N5CC6CC6C5)cc4n3C)c2Cl)cccc1=O` (stereo partly shown) [Example 210], the IC50 turned out to be 8 nM.

In the case of `Cn1c(Nc2c(Cl)ccc(CNC(=O)C(C)(C)O)c2Cl)nc2cc(C(=O)N[C@H]3CC[C@H](C(F)(F)F)CC3)c(N3CC4CC4C3)cc21` (stereo partly shown) [Example 190], the IC50 was determined as 9 nM.

As for `Cn1c(Nc2c(Cl)ccc(CNC(=O)C(C)(C)C)c2Cl)nc2cc(C(=O)NCC(F)(F)C(F)(F)F)c(N3CCC(F)CC3)cc21` [Example 151], the half-maximal inhibitory concentration (IC50) worked out at 1.4 nM.

`Cn1c(Nc2c(Cl)ccc(CNC(=O)c3ccc(C#N)nc3)c2Cl)nc2cc(C(=O)N[C@H]3CC[C@H](C(F)(F)F)CC3)c(N3CC4CC4C3)cc21` (stereo partly shown) [Example 212]: the half-inhibitory concentration (IC50) came to 1.7 nM.

For `Cn1c(Nc2c(Cl)ccc(CNC(=O)C(C)(C)C)c2Cl)nc2cc(C(=O)NC3CC(F)(F)C3)c(NCC(F)F)cc21` [Example 16], the IC50 was 197 nM.

For the molecule `CNc1cncc(C(=O)NCc2ccc(Cl)c(Nc3nc4cc(C(=O)N[C@H]5CC[C@H](C(F)(F)F)CC5)c(N5CC6CC6C5)cc4n3C)c2Cl)n1` (stereo partly shown) [Example 214], the IC50 was 113 nM.

As for `Cn1c(Nc2c(Cl)ccc(CNC(=O)c3cc[nH]n3)c2Cl)nc2cc(C(=O)NCCC(F)(F)F)c(N3CCC(C(F)(F)F)CC3)cc21` [Example 184], the IC50 is over 100 nM.

Take `Cn1c(Nc2c(Cl)ccc(CNC(=O)c3cccc(C#N)n3)c2Cl)nc2cc(C(=O)N[C@H]3CC[C@H](C(F)(F)F)CC3)c(N3CC4CC4C3)cc21` (stereo partly shown) [Example 208]: the half-maximal inhibitory concentration (IC50) was 21 nM.

As to `CC(C)(C)C(=O)NCc1ccc(Cl)c(Nc2nc3cc(C(=O)Nc4ccc(OC(F)(F)F)cc4)c(N4CCC(C(F)(F)F)CC4)cc3n2CCC(N)=O)c1Cl` [Example 169], the IC50 worked out at 5 nM.

Consider `Cn1c(Nc2c(Cl)ccc(CNC(=O)c3ncn[nH]3)c2Cl)nc2cc(C(=O)N[C@H]3CC[C@H](C(F)(F)F)CC3)c(N3CC4CC4C3)cc21` (stereo partly shown) [Example 215], for which the IC50 was over 100 nM.

`Cn1c(Nc2c(Cl)ccc(CNC(=O)C(C)(C)C)c2Cl)nc2cc(C(=O)N[C@H]3CC[C@H](C(F)(F)F)CC3)c(N3CCC(C(F)(F)F)CC3)cc21` [Example 52, N-(trans-4-Trifluoromethyl-cyclohexyl)-2-{2,6-dichloro-3-[(2,2-dimethyl-propionylamino)-methyl]-phenylamino}-6-[4-trifluoromethyl-piperidinyl]-1-methyl-1H-benzimidazole-5-carboxylic acid amide]: the half-inhibitory concentration (IC50) was under 1 nM.

Regarding `Cc1nc(C(=O)NCc2ccc(Cl)c(Nc3nc4cc(C(=O)N[C@H]5CC[C@H](C(F)(F)F)CC5)c(N5CC6CC6C5)cc4n3C)c2Cl)cs1` (stereo partly shown) [Example 228], the IC50 was over 100 nM.

Regarding `Cc1cc(C(=O)NCc2ccc(Cl)c(Nc3nc4cc(C(=O)N[C@H]5CC[C@H](C(F)(F)F)CC5)c(N5CC6CC6C5)cc4n3C)c2Cl)no1` (stereo partly shown) [Example 223], the IC50 was 12 nM.

As for `COc1ncccc1C(=O)NCc1ccc(Cl)c(Nc2nc3cc(C(=O)N[C@H]4CC[C@H](C(F)(F)F)CC4)c(N4CC5CC5C4)cc3n2C)c1Cl` (stereo partly shown) [Example 211], the IC50 amounted to 106 nM.

Take `CC(C)(C)C(=O)NCc1ccc(Cl)c(Nc2nc3cc(C(=O)Nc4ccc(OC(F)(F)F)cc4)c(N4CC[C@@H](F)C4)cc3n2CC(F)F)c1Cl` [Example 77, (R)—N-(4-Trifluoromethoxy-phenyl)-2-{2,6-dichloro-3-[(2,2-dimethyl-propionylamino)-methyl]-phenylamino}-6-[3-fluoro-pyrrolidinyl]-1-(2,2-difluorethyl)-1H-benzimidazole-5-carboxylic acid amide]: the IC50 was 2 nM.

In the case of `CN(Cc1ncnn1C)c1cc2c(cc1C(=O)N[C@H]1CC[C@H](C(F)(F)F)CC1)nc(Nc1c(Cl)ccc(CNC(=O)C(C)(C)C)c1Cl)n2C` [Example 116], the IC50 came out at 80 nM.

As to `Cn1c(Nc2c(Cl)ccc(CNC(=O)C3(C)CC3)c2Cl)nc2cc(C(=O)N[C@H]3CC[C@H](C(F)(F)F)CC3)c(N3CC4CC4C3)cc21` (stereo partly shown) [Example 187], the IC50 was found to be 1 nM.

With `CN(C)c1ccnc(C(=O)NCc2ccc(Cl)c(Nc3nc4cc(C(=O)N[C@H]5CC[C@H](C(F)(F)F)CC5)c(N5CC6CC6C5)cc4n3C)c2Cl)c1` (stereo partly shown) [Example 195], the IC50 came to 51 nM.

As for `Cn1c(Nc2c(Cl)ccc(CNC(=O)c3cc[nH]n3)c2Cl)nc2cc(C(=O)N[C@H]3CC[C@H](C(F)(F)F)CC3)c(N3CC4CC4C3)cc21` (stereo partly shown) [Example 230], the IC50 was found to be 40 nM.

As for `Cn1c(Nc2c(Cl)ccc(CNC(=O)OC(C)(C)C)c2Cl)nc2cc(C(=O)NCCC(F)(F)F)c(N3CC4CC4C3)cc21` (stereo not shown) [Example 266], the IC50 was 23 nM.

Take `Cn1nc(C(=O)NCc2ccc(Cl)c(Nc3nc4cc(C(=O)NCCC(F)(F)F)c(N5CCC(C(F)(F)F)CC5)cc4n3C)c2Cl)cc1N` [Example 180]: the half-maximal inhibitory concentration (IC50) is over 100 nM.

As for `Cc1n[nH]c(CN(C)c2cc3c(cc2C(=O)Nc2ccc(OC(F)(F)F)cc2)nc(Nc2c(Cl)ccc(CNC(=O)C(C)(C)F)c2Cl)n3C)n1` [Example 143], the IC50 was determined as 2.6 nM.

On to `Cn1c(Nc2c(Cl)ccc(CNC(=O)c3cc(CO)ccn3)c2Cl)nc2cc(C(=O)N[C@H]3CC[C@H](C(F)(F)F)CC3)c(N3CC4CC4C3)cc21` (stereo partly shown) [Example 207], for which the IC50 is 170 nM.

As to `Cn1c(Nc2c(Cl)ccc(CNC(=O)c3cnc(N)s3)c2Cl)nc2cc(C(=O)N[C@H]3CC[C@H](C(F)(F)F)CC3)c(N3CC4CC4C3)cc21` (stereo partly shown) [Example 226], the IC50 was 98 nM.

With `CNc1cncc(C(=O)NCc2ccc(Cl)c(Nc3nc4cc(C(=O)N[C@H]5CC[C@H](C(F)(F)F)CC5)c(N5CC6CC6C5)cc4n3C)c2Cl)c1` (stereo partly shown) [Example 198], the half-maximal inhibitory concentration (IC50) was over 100 nM.

As for `Cn1c(Nc2c(Cl)ccc(CNC(=O)c3cn[nH]c3)c2Cl)nc2cc(C(=O)N[C@H]3CC[C@H](C(F)(F)F)CC3)c(N3CC4CC4C3)cc21` (stereo partly shown) [Example 221], the IC50 turned out to be 53 nM.

Regarding `Cn1c(Nc2c(Cl)ccc(CNC(=O)C3(O)CC3)c2Cl)nc2cc(C(=O)N[C@H]3CC[C@H](C(F)(F)F)CC3)c(N3CC4CC4C3)cc21` (stereo partly shown) [Example 189], the IC50 was found to be 3 nM.

For the molecule `Cc1cc(C(=O)NCc2ccc(Cl)c(Nc3nc4cc(C(=O)N[C@H]5CC[C@H](C(F)(F)F)CC5)c(N5CC6CC6C5)cc4n3C)c2Cl)nn1C` (stereo partly shown) [Example 219], the IC50 was over 100 nM.

For the molecule `Cn1c(Nc2c(Cl)ccc(CNC(=O)c3n[nH]c4c3CCC4)c2Cl)nc2cc(C(=O)NCCC(F)(F)F)c(N3CCC(C(F)(F)F)CC3)cc21` [Example 183], the IC50 is over 100 nM.

Take `Cn1c(Nc2c(Cl)ccc(CNC(=O)C(C)(C)C)c2Cl)nc2cc(C(=O)Nc3ccc(OC(F)(F)F)cc3)c(N3CCC(F)CC3)cc21` [Example 267]: the IC50 came out at 1.7 nM.

In the case of `CC(C)(C)C(=O)NCc1ccc(Cl)c(Nc2nc3cc(C(=O)N[C@H]4CC[C@H](C(F)(F)F)CC4)c(N4CCOCC4)cc3n2CCC(N)=O)c1Cl` [Example 170], the IC50 was determined as 110 nM.

`Cn1c(Nc2c(Cl)ccc(CNC(=O)[C@@](C)(O)C(F)(F)F)c2Cl)nc2cc(C(=O)N[C@H]3CC[C@H](C(F)(F)F)CC3)c(N3CC4CC4C3)cc21` (stereo partly shown) [Example 192]: the IC50 worked out at 1 nM.

In the case of `Cc1ccnc(C(=O)NCc2ccc(Cl)c(Nc3nc4cc(C(=O)N[C@H]5CC[C@H](C(F)(F)F)CC5)c(N5CC6CC6C5)cc4n3C)c2Cl)c1` (stereo partly shown) [Example 196], the IC50 came out at 9 nM.

Consider `Cn1c(Nc2c(Cl)ccc(CNC(=O)c3c[nH]cn3)c2Cl)nc2cc(C(=O)N[C@H]3CC[C@H](C(F)(F)F)CC3)c(N3CC4CC4C3)cc21` (stereo partly shown) [Example 220], for which the IC50 amounted to 119 nM.

For `Cn1c(Nc2c(Cl)ccc(CNC(=O)[C@@](C)(O)C(F)(F)F)c2Cl)nc2cc(C(=O)N[C@H]3CC[C@H](C(F)(F)F)CC3)c(N3CC4CC4C3)cc21` (stereo partly shown) [Example 193], the IC50 amounted to 2.5 nM.

For the molecule `Cn1c(Nc2c(Cl)ccc(CNC(=O)C(C)(C)C)c2Cl)nc2cc(C(=O)N[C@H]3CC[C@@H](C(F)(F)F)CC3)c(N3CC4CC4C3)cc21` (stereo partly shown) [Example 155], the IC50 came to 6 nM.

The values above are taken from patent US8674113B2, “Compounds” (Boehringer Ingelheim International GmbH, priority 2010, dated 2014).
